# Measurements: patent US20180161314A1, “Methods for Treating Hyperuricemia and Related Diseases” (Ardea Biosciences, Inc., priority 2010, published 2018)
# Where two headings read alike, the source gives them in different places.
# Assays:
# [1] = tested on: gout patients with hyperuricemia; format: in vivo; conditions: for Mean absolute sUA reduction / Mean sUA % change / Mean sUA level: ± SE; for % Response rate for sUA falling below 4 mg/dL / % Response rate for sUA falling below 5 mg/dL / % Response rate for sUA falling below 6 mg/dL: allopurinol 300 mg
# Protocol: Study Objectives • To measure the effect of drug 1, alone and in combination with allopurinol, on serum urate concentration. • To evaluate the safety and tolerability of drug 1 in combination with allopurinol.
# The study is open-label in gout patients with hyperuricemia, involving 2 panels of ˜10-12 patients per panel. The panels may be enrolled simultaneously.
# Panel 1 receives a once-daily dose of allopurinol 300 mg alone for 7 days and for an additional 7 days in combination with a once-daily dose of drug 1 400 mg. Patients then receive 7 days of a once-daily dose of drug 1 400 mg alone. Panel 2 follows the same regimen as panel 1, at doses of allopurinol 300 mg and drug 1 600 mg.
# • Day −10 to Day 28: colchicine prophylaxis; or • Day −7 to Day 28: colchicine prophylaxis (for patients not washing out from ULT) • Days 1-7: allopurinol 300 mg qd • Days 8-14: drug 1 400 mg qd+allopurinol 300 mg qd • Days 15-21: drug 1 400 mg qd
# • Day −10 to Day 28: colchicine prophylaxis; or • Day −7 to Day 28: colchicine prophylaxis (for patients not washing out from ULT) • Days 1-7: allopurinol 300 mg qd • Days 8-14: drug 1 600 mg qd+allopurinol 300 mg qd • Days 15-21: drug 1 600 mg qd
# Gout patients on a urate lowering therapy (ULT), have previously taken a ULT or who have never taken a ULT are eligible to participate. Screening procedures to determine patient eligibility are performed within approximately 14 days of the first dose of study drug (Day 1). Subjects currently on ULT wash-out for at least 10 days before Day 1, and begin colchicine (Colcry® 0.6 mg qd, URL Pharma) as prophylaxis for gout flares at the beginning of the wash-out period. Subjects not on ULT begin colchicine administration at least 7 days prior to Day 1. Patients intolerant of colchicine during the screening period are considered screen failures and not enrolled. Prophylactic administration of colchicine continues for 7 days after the last dose of study medication.
# Eligible patients report to the study center early morning on Days −1, 7, 14, and 21 (or the afternoon/evening the day before). Serial blood samples are collected on Days −1, 7, 14, and 21. Study medication is administered to each patient and taken orally every morning with approximately 240 mL of water, at approximately the same time of the morning every day, and approximately 30 minutes after finishing a full breakfast (approximately 650 Kcal and 35% fat); the breakfast is standardized on Days −1 to 21.
# Inclusion Criteria • Patient is male or post-menopausal or surgically sterile female. • Patient is 18-80 years of age. • Patient meets one or more criteria for the diagnosis of gout as per the American Rheumatism Association (ARA) Criteria for the Classification of Acute Arthritis of Primary Gout (Appendix B). • Patient sUA≥8 mg/dL at screening. • Patient willing and able to give informed consent and adhere to visit/protocol schedules • No clinically relevant abnormalities in blood pressure (BP), heart rate (HR), body temperature and respiratory rate as per Investigator's judgment.
# Subject urate serum levels are recorded, and any safety concerns assessed (by adverse events, clinical laboratory test results, vital signs, 12-lead ECGs, and physical examinations). […] Urate serum concentrations are evaluated for treatment- and/or time-dependent changes relative to baseline (Day −1), and may be expressed both in standard units (mg/dL) and as changes from baseline (e.g., percent change, absolute change, maximal change, and time or day of maximal change).
# Drug 1 was tested according to the protocol described in Example 21.
# Serum urate levels were measured and absolute and % reduction levels from baseline calculated, for Allopurinol monotherapy, Drug 1 monotherapy and Allopurinol plus Drug 1 combination.
# [2] = in clinical studies; cited from earlier work
# xanthine oxidase = xanthine oxidase (Homo sapiens, UniProt P47989); conditions: cited from earlier work
# URAT1 = target: T1, URAT1 (Homo sapiens, UniProt Q96S37); conditions: in vitro; cited from earlier work
# T1 sequence (Q96S37 1-553): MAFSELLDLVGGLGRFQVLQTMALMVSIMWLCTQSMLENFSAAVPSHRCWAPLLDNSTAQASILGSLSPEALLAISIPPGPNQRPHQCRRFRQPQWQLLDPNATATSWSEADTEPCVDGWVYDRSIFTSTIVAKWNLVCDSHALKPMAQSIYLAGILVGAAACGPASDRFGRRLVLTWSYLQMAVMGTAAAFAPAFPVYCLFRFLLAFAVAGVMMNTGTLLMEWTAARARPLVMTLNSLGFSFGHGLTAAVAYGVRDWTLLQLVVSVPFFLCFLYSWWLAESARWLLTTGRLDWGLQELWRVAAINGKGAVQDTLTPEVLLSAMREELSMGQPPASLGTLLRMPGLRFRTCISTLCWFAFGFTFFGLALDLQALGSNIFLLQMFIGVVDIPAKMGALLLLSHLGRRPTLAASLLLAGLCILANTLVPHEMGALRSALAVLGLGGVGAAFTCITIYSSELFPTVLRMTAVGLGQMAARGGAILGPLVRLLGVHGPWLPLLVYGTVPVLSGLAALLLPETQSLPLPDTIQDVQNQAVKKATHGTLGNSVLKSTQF
# PNP = target: T2, PNP (Homo sapiens, UniProt P00491); conditions: cited from earlier work
# T2 sequence (P00491 1-289): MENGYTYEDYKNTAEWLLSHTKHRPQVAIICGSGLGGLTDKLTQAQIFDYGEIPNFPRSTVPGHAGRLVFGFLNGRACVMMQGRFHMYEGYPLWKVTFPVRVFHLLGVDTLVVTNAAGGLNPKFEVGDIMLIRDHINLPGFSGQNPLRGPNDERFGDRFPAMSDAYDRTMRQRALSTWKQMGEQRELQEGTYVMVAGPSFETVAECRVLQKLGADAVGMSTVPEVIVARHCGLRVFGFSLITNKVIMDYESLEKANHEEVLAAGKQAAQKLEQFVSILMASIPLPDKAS
# [3] = Drug 1 400 mg panel: allopurinol 300 mg qd days 1-7, combination days 8-14, drug 1 400 mg qd alone days 15-21
# [4] = Drug 1 600 mg panel: allopurinol 300 mg qd days 1-7, combination days 8-14, drug 1 600 mg qd alone days 15-21
# xanthine oxidase, sequence (P47989 whole entry, species assumed): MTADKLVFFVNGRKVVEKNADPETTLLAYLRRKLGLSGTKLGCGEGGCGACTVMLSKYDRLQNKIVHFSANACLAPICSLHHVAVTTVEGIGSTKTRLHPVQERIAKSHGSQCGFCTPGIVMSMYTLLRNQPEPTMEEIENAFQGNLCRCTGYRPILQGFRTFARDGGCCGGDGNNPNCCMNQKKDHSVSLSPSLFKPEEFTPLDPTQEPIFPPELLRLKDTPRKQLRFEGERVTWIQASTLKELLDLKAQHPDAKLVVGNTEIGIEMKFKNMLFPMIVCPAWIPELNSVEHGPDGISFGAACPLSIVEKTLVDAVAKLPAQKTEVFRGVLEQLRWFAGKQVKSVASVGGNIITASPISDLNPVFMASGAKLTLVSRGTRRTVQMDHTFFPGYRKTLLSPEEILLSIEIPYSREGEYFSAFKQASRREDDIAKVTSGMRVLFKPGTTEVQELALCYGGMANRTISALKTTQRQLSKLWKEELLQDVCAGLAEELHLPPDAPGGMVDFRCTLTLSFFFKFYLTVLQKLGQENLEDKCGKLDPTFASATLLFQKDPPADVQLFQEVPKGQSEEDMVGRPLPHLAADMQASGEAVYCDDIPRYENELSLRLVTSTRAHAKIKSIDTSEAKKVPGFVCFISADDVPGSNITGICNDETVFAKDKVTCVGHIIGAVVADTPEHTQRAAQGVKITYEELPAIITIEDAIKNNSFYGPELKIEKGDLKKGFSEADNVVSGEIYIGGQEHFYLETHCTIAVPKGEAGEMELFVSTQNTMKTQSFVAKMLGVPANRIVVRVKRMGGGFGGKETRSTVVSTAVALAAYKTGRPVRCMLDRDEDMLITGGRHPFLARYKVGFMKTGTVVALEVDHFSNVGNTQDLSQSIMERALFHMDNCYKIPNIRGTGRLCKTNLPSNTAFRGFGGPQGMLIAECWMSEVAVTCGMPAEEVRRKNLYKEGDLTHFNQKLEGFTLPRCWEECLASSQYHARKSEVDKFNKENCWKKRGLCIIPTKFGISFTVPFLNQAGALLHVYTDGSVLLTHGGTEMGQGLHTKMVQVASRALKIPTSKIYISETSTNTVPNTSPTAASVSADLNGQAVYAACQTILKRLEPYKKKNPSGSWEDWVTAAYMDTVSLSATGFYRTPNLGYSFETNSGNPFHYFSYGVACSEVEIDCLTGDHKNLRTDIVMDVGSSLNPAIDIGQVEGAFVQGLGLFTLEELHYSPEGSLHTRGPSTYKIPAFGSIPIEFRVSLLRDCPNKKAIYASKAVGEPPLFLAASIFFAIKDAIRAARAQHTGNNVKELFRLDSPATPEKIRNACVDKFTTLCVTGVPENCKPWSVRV
compound,measurement,setting,value
"O=C(O)CSc1nnc(Br)n1-c1ccc(C2CC2)c2ccccc12 [Drug 1, Sodium 2-(5-bromo-4-(4-cyclopropylnaphthalen-1-yl)-4H-1,2,4-triazol-3-ylthio)acetate]",Mean absolute sUA reduction,[1]; [3],-3.0 ± 0.46 mg/dL
same,Mean sUA % change,[1]; [3],−30.2 ± 3.7%
same,Mean sUA level,[1]; [3],6.6 ± 0.22 mg/dL
same,% Response rate for sUA falling below 4 mg/dL,[1]; Drug 1 400 mg panel,0%
same,% Response rate for sUA falling below 5 mg/dL,[1]; Drug 1 400 mg panel,0%
same,% Response rate for sUA falling below 6 mg/dL,[1]; Drug 1 400 mg panel,20%
same,Mean absolute sUA reduction,[1]; [4],-3.3 ± 0.23 mg/dL
same,Mean sUA % change,[1]; [4],−37.2 ± 2.6%
same,Mean sUA level,[1]; [4],5.7 ± 0.41 mg/dL
same,% Response rate for sUA falling below 4 mg/dL,[1]; Drug 1 600 mg panel,0%
same,% Response rate for sUA falling below 5 mg/dL,[1]; Drug 1 600 mg panel,33%
same,% Response rate for sUA falling below 6 mg/dL,[1]; Drug 1 600 mg panel,67%
same,Route of excretion,[2],"preferentially excreted through the kidney, reaching high concentrations in urine"
same,Inhibition of xanthine oxidase,xanthine oxidase,does not significantly inhibit
same,Effect on the URAT1-mediated uptake of uric acid,URAT1,concentration-dependent inhibitory effect
same,Inhibition of PNP,PNP,does not significantly inhibit
